Results as given in US20050282743A1, “Molecular interactions in cells” (Arbor Vita Corporation, priority 2001, published 2005).
Ends that are not written are not given here. Peptide text beside a SMILES is read from it. * marks the point of attachment. Biotin = O=C1N[C@H]2[C@H](CS[C@H]2CCCCC(=O)*)N1

Target: T1, PDZ protein (GST-PDZ fusion) (Homo sapiens, UniProt Q5T2W1)
T1 construct: made in house; host or cells: E. coli (DH5alpha, BL21 or JM109)
T1 sequence (Q5T2W1 1-519): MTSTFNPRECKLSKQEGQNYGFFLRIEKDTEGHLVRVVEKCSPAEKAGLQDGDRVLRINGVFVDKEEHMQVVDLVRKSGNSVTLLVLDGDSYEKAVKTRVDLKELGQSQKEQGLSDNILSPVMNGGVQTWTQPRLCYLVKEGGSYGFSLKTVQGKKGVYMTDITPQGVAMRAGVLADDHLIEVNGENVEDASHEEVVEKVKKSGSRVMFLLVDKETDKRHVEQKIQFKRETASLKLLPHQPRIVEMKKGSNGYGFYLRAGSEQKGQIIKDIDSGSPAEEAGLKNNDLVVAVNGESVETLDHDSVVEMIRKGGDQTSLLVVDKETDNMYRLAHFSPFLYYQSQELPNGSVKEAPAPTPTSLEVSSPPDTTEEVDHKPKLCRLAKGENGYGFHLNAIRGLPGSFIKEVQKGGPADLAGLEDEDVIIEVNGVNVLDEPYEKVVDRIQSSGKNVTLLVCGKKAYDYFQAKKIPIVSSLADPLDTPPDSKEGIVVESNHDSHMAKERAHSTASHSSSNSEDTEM
Assay: G' assay (10 uM PL peptide), results of TABLE 7 and TABLE 12
Format: binding
Conditions: PDZ PDZK1, PDZ Domain 2, 3, 4
Summary of the method: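 Same steps as the G-zero format, apart from a peptide concentration of 10 uM in place of 20 uM in step 2. Amino-terminally biotinylated PL peptides bind GST-PDZ fusions, and retained peptide is quantified by 450 nm absorbance.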

**Q.** For CC(C)C[C@H](NC(=O)[C@H](C)NC(=O)[C@@H](NC(=O)[C@H](CCC(=O)O)NC(=O)[C@H](CCCNC(=N)N)NC(=O)[C@H](CCCNC(=N)N)NC(=O)CNC(=O)[C@H](CCC(N)=O)NC(=O)[C@H](CC(C)C)NC(=O)[C@H](CCCNC(=N)N)NC(=O)CNC(=O)CNC(=O)[C@H](CCCNC(=N)N)NC(=O)[C@H](C)NC(=O)[C@H](CO)NC(=O)[C@H](CCCNC(=N)N)NC(=O)CNC(=O)CNC(=O)[C@H](C)NC(=O)[C@H](C)NC(=O)CCCC[C@@H]1SC[C@@H]2NC(=O)N[C@@H]21)[C@@H](C)O)C(=O)O [HPV E6 33 (modified)] (Biotin-AAGGRSARGGRLQGRRETAL-OH; C-terminus assumed), which Classification is on record?
**A.** 1 (A450 nm 0-1)

**Q.** How did the Classification turn out when CC(C)C[C@H](NC(=O)[C@H](C)NC(=O)[C@@H](NC(=O)[C@@H](NC(=O)[C@H](Cc1c[nH]cn1)NC(=O)[C@H](CC(C)C)NC(=O)CNC(=O)[C@H](CCC(N)=O)NC(=O)CNC(=O)CNC(=O)[C@H](C)NC(=O)[C@H](C)NC(=O)[C@H](CCCNC(=N)N)NC(=O)[C@H](C)NC(=O)[C@H](CO)NC(=O)[C@H](CC(=O)O)NC(=O)[C@H](CC(=O)O)NC(=O)[C@H](Cc1c[nH]c2ccccc12)NC(=O)[C@H](C)NC(=O)CCCC[C@@H]1SC[C@@H]2NC(=O)N[C@@H]21)C(C)C)[C@@H](C)O)C(=O)O [LPAP] (Biotin-AWDDSARAAGGQGLHVTAL-OH; C-terminus assumed) was run?
**A.** 3 (A450 nm 2-3)

**Q.** Which Classification does the source give for “ARHRVTSYTSSSVNVSSNL (Biotin-ARHRVTSYTSSSVNVSSNL) [IL-8RB]” here?
**A.** 1 (A450 nm 0-1)

**Q.** How did the Classification turn out when CC[C@H](C)[C@H](NC(=O)[C@H](CO)NC(=O)[C@H](CCC(=O)O)NC(=O)[C@H](Cc1ccc(O)cc1)NC(=O)[C@H](CC(=O)O)NC(=O)[C@H](CC(N)=O)NC(=O)[C@H](CCC(=O)O)NC(=O)[C@H](CCCCN)NC(=O)CCCC[C@@H]1SC[C@@H]2NC(=O)N[C@@H]21)C(=O)N[C@@H](CO)C(=O)N[C@@H](CC(=O)O)C(=O)N[C@@H](CC(C)C)C(=O)N[C@@H](CCC(N)=O)C(=O)N[C@@H](CCC(N)=O)C(=O)NCC(=O)N[C@@H](CCCNC(=N)N)C(=O)N[C@@H](CC(=O)O)C(=O)N[C@H](C(=O)N[C@H](C(=O)N[C@@H](CCCNC(=N)N)C(=O)N[C@@H](CC(C)C)C(=O)O)[C@@H](C)O)[C@@H](C)CC [PAG] (Biotin-KENDYESISDLQQGRDITRL-OH; C-terminus assumed) was run?
**A.** 1 (A450 nm 0-1)

**Q.** For “PPATPSPRLALPAHHNATRL (Biotin-PPATPSPRLALPAHHNATRL) [Na+/Pi cotransporter 2]”, which Classification is on record?
**A.** 1 (A450 nm 0-1)

**Q.** Which Classification does the source give for CC(C)C[C@H](NC(=O)[C@H](CCCNC(=N)N)NC(=O)CNC(=O)CNC(=O)[C@H](CCCNC(=N)N)NC(=O)[C@H](C)NC(=O)[C@@H]1CCCN1C(=O)[C@H](CCCNC(=N)N)NC(=O)CNC(=O)CNC(=O)[C@@H](NC(=O)[C@H](C)NC(=O)CCCC[C@@H]1SC[C@@H]2NC(=O)N[C@@H]21)C(C)C)C(=O)N[C@@H](CCC(N)=O)C(=O)NCC(=O)N[C@@H](CCCNC(=N)N)C(=O)N[C@@H](CCCNC(=N)N)C(=O)N[C@@H](CCC(N)=O)C(=O)N[C@H](C(=O)N[C@@H](CCC(N)=O)C(=O)N[C@H](C(=O)O)C(C)C)[C@@H](C)O [HPV E6 58 (modified)] (Biotin-AVGGRPARGGRLQGRRQTQV-OH; C-terminus assumed) here?
**A.** 1 (A450 nm 0-1)

**Q.** For CC[C@H](C)[C@H](NC(=O)CNC(=O)[C@H](CO)NC(=O)[C@H](Cc1ccccc1)NC(=O)[C@@H](NC(=O)[C@H](CS)NC(=O)CNC(=O)CNC(=O)[C@H](C)NC(=O)[C@@H]1CCCN1C(=O)[C@@H](NC(=O)[C@@H]1CCCN1C(=O)CCCC[C@@H]1SC[C@@H]2NC(=O)N[C@@H]21)[C@@H](C)CC)[C@@H](C)O)C(=O)N[C@@H](Cc1ccccc1)C(=O)N1CCC[C@H]1C(=O)N[C@H](C(=O)N[C@@H](CC(C)C)C(=O)N[C@H](C(=O)N[C@@H](CO)C(=O)N1CCC[C@H]1C(=O)N[C@@H](CC(C)C)C(=O)O)[C@@H](C)O)[C@@H](C)O [KIA 1481] (Biotin-PIPAGGCTFSGIFPTLTSPL-OH; C-terminus assumed), which Classification is on record?
**A.** 2 (A450 nm 1-2)

Same assay, conditions: PDZ PDZK-1, PDZ Domain 4

**Q.** CC[C@H](C)[C@H](NC(=O)[C@H](Cc1ccc(O)cc1)NC(=O)[C@@H](NC(=O)[C@@H]1CCCN1C(=O)[C@H](CCC(N)=O)NC(=O)[C@H](CCC(=O)O)NC(=O)[C@H](CCC(N)=O)NC(=O)[C@H](C)NC(=O)[C@@H](NC(=O)[C@H](CC(C)C)NC(=O)[C@H](CC(C)C)NC(=O)[C@H](CCCNC(=N)N)NC(=O)[C@H](Cc1ccc(O)cc1)NC(=O)[C@H](CCSC)NC(=O)[C@H](C)NC(=O)[C@H](C)NC(=O)[C@@H]1CCCN1C(=O)[C@H](CCSC)NC(=O)[C@@H](NC(=O)[C@H](CCCCN)NC(=O)CCCC[C@@H]1SC[C@@H]2NC(=O)N[C@@H]21)[C@@H](C)O)[C@@H](C)O)C(C)C)C(=O)O [MINT-1] (Biotin-KTMPAAMYRLLTAQEQPVYI-OH; C-terminus assumed) was tested. Which Classification did it give?
**A.** 1 (A450 nm 0-1)

**Q.** How did the Classification turn out when “KTMPAAMFRLLTGQETPLYI (Biotin-KTMPAAMFRLLTGQETPLYI) [MINT-2]” was run?
**A.** 1 (A450 nm 0-1)
